According to ChEMBL document CHEMBL1649482, “Gene Context and DNA rearrangements in the carbapenemase locus of division II strains of Bacteroides fragilis” (2009):
≈ marks a conversion by molar mass, not a printed value.

Legend:
Type in all cases: functional
Bacteroides fragilis [1] = test: Antimicrobial activity against Bacteroides fragilis MN4a
Bacteroides fragilis [2] = test: Antimicrobial activity against Bacteroides fragilis MN35 after 24 hrs by agar dilution method; conditions: MN35, 24 h
Bacteroides fragilis [3] = test: Antimicrobial activity against Bacteroides fragilis MN36 after 24 hrs by agar dilution method; conditions: MN36, 24 h
Bacteroides fragilis [4] = test: Antimicrobial activity against Bacteroides fragilis MN32 imipenemase activity after 24 hrs by agar dilution method; conditions: MN32, 24 h
Bacteroides fragilis [5] = test: Antimicrobial activity against Bacteroides fragilis MN5 after 24 hrs by agar dilution method; conditions: MN5, 24 h
Bacteroides fragilis [6] = test: Antimicrobial activity against Bacteroides fragilis MN41 after 24 hrs by agar dilution method; conditions: MN41, 24 h
Bacteroides fragilis [7] = test: Antimicrobial activity against Bacteroides fragilis MN11 expressing imipenemase activity after 24 hrs by agar dilution method; conditions: MN11, 24 h

- MIC (Bacteroides fragilis [1]): 0.5 µg/mL (≈ 1.67 µM)
- MIC (Bacteroides fragilis [2]): 0.25 µg/mL (≈ 0.835 µM)
- MIC (Bacteroides fragilis [3]): 0.25 µg/mL (≈ 0.835 µM)
- MIC (Bacteroides fragilis [4]): 128 µg/mL (≈ 428 µM)
- MIC (Bacteroides fragilis [5]): 0.25 µg/mL (≈ 0.835 µM)
- MIC (Bacteroides fragilis [6]): 0.25 µg/mL (≈ 0.835 µM)
- MIC (Bacteroides fragilis [7]): 256 µg/mL (≈ 855 µM)
Structure (SMILES): C[C@@H](O)[C@H]1C(=O)N2C(C(=O)O)=C(SCCNC=N)C[C@H]12 [IMIPENEM ANHYDROUS]
